Reference: patent publication US6855843B2, “Inhibitors of α4 mediated cell adhesion” (Tanabe Seiyaku Co., Ltd., priority 1998, dated 2005)

These compounds were tested against T1, α4β7 (adhesion of RPMI cells to CS-1) (Homo sapiens, UniProt P13612+P26010) (assay: RPMI-CS-1 cell adhesion assay). Settings: adhesion of RPMI B-cell line (expresses α4β7) to CS-1 peptide coated microwells; read-out: RPMI-CS-1 IC50 value range.
T1 construct: endogenous in cells
T1 sequence (P13612 34-1032): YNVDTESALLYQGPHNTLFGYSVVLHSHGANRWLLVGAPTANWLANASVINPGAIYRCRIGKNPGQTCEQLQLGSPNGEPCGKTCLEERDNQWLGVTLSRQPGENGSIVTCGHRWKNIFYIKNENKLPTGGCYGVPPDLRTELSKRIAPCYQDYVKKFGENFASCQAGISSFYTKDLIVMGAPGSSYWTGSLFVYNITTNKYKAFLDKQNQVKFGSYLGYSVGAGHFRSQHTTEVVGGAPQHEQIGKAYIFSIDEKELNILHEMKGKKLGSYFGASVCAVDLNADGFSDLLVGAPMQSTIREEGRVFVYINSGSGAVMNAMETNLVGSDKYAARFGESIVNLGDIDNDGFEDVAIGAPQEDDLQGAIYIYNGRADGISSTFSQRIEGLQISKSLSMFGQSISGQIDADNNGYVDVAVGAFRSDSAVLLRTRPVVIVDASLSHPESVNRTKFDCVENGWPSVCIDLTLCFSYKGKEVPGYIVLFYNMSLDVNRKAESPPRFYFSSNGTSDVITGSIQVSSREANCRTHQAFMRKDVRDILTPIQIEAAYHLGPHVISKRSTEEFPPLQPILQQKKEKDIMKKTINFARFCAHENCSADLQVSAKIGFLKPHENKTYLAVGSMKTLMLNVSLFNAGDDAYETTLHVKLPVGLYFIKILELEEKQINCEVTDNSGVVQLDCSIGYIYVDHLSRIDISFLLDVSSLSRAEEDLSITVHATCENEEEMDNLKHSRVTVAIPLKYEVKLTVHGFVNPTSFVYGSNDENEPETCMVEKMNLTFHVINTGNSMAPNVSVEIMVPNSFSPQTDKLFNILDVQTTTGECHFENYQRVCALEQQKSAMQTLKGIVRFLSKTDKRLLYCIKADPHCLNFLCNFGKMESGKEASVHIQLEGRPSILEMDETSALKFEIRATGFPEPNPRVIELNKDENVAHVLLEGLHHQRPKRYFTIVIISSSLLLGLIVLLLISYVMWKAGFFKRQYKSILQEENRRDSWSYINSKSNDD
T1 sequence (P26010 20-798): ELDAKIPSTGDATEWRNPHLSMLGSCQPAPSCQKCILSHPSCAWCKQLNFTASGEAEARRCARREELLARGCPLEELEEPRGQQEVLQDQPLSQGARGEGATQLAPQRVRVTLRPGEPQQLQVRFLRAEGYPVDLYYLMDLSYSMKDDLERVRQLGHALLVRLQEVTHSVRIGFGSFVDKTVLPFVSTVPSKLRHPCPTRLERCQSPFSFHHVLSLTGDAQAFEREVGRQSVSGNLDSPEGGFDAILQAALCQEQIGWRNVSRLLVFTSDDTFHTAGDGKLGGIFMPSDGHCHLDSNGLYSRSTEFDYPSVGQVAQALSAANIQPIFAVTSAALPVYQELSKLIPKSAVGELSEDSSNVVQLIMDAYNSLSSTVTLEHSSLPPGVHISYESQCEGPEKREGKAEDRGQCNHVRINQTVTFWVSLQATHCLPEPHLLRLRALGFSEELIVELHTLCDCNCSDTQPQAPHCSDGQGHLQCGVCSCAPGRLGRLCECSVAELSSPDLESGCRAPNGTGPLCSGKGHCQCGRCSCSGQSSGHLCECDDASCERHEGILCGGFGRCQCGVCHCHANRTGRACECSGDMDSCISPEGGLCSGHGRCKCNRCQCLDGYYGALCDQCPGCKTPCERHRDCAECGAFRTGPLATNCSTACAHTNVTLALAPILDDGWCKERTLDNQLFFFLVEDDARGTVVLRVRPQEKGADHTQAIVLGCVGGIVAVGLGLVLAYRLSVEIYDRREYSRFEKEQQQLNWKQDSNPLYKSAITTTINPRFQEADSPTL
Format: cell-based

Structure (SMILES) | IC50
CN1CCCC1CCOc1ccccc1-c1ccc(C[C@H](NC(=O)c2c(Cl)cccc2Cl)C(=O)O)cc1 (some centres unmarked) [Example 43] | 1 to 5 µM
COC(=O)[C@H](Cc1ccc(-c2cccnc2)cc1)NC(=O)c1c(Cl)cccc1Cl [Example 127] | > 5 µM
COc1cc(Cl)cc(OC)c1-c1ccc(C[C@H](NC(=O)c2c(Cl)cccc2Cl)C(=O)O)cc1 [Example 12, N-(2,6-Dichlorobenzoyl)-4-(4-chloro-2,6-dimethoxyphenyl)-L-phenylalanine] | < 0.3 µM
CC(=O)Nc1cccc(-c2ccc(C[C@H](NC(=O)c3c(Cl)cccc3Cl)C(=O)O)cc2)c1 [Example 124] | 1 to 5 µM
O=C(NCc1ccccc1)c1ccccc1-c1ccc(C[C@H](NC(=O)c2c(Cl)cccc2Cl)C(=O)O)cc1 [Example 53, N-(2,6-Dichlorobenzoyl)-4-[2-(N-benzylcarbamoyl)phenyl]-L-phenylalanine] | 1 to 5 µM
CCOc1cccc(-c2ccc(C[C@H](NC(=O)c3c(Cl)cccc3Cl)C(=O)O)cc2)c1 [Example 120] | > 5 µM
CS(=O)(=O)c1ccccc1-c1ccc(C[C@H](NC(=O)c2c(Cl)cccc2Cl)C(=O)O)cc1 [Example 152B, N-(2,6-Dichlorobenzoyl)-4-[2-(methylsulfonyl)phenyl]-L-phenyl-alanine] | < 0.3 µM
COc1ccccc1-c1ccc(C[C@H](NC(=O)c2cnccn2)C(=O)O)cc1 [Example 103] | > 5 µM
O=C(O)c1ccccc1-c1ccc(C[C@H](NC(=O)c2c(Cl)cccc2Cl)C(=O)O)cc1 [Example 52, N-(2,6-Dichlorobenzoyl)-4-(2-carboxyphenyl)-L-phenylalanine] | > 5 µM
O=C(O)CCCOc1ccccc1-c1ccc(C[C@H](NC(=O)c2c(Cl)cccc2Cl)C(=O)O)cc1 [Example 36] | < 0.3 µM
COC(=O)Nc1cccc(-c2ccc(C[C@H](NC(=O)c3c(Cl)cccc3Cl)C(=O)O)cc2)c1 [Example 125] | 1 to 5 µM
COC(=O)[C@H](Cc1ccc(-c2ccccc2CNc2ccccn2)cc1)NC(=O)c1c(Cl)cccc1Cl [Example 115] | 1 to 5 µM
O=C(N[C@@H](Cc1ccc(-c2ccccc2OCCCO)cc1)C(=O)O)c1c(Cl)cccc1Cl [Example 37] | 0.3 to 1 µM
O=C(N[C@@H](Cc1ccc(-c2ccccc2OCc2cccnc2)cc1)C(=O)O)c1c(Cl)cccc1Cl [Example 40] | 0.3 to 1 µM
O=C(N[C@@H](Cc1ccc(-c2ccccc2CNc2ccccc2)cc1)C(=O)O)c1c(Cl)cccc1Cl [Example 46, N-(2,6-Dichlorobenzoyl)-4-[2-[(phenylamino)methyl]phenyl]-L-phenylalanine] | < 0.3 µM
O=C(O)COc1ccccc1-c1ccc(C[C@H](NC(=O)c2c(Cl)cccc2Cl)C(=O)O)cc1 [Example 32, N-(2,6-Dichlorobenzoyl)-4-[2-(carboxymethoxy)-phenyl]-L-phenylalanine] | < 0.3 µM
O=C(NS(=O)(=O)c1ccccc1-c1ccc(C[C@H](NC(=O)c2c(Cl)cccc2Cl)C(=O)O)cc1)c1ccccc1 [Example 18, N-(2,6-Dichlorobenzoyl)-4-[2-(N-benzoylsulfamoyl)phenyl]-L-phenylalanine] | 0.3 to 1 µM
COc1ccccc1-c1ccc(C[C@H](NC(=O)c2ccc(NC(C)=O)cc2)C(=O)O)cc1 [Example 104] | > 5 µM
COc1ccccc1-c1ccc(C[C@H](NC(=O)c2ccc(NS(=O)(=O)C(F)(F)F)cc2Cl)C(=O)O)cc1 [Example 65, N-[2-Chloro-4-(trifluoromethanesulfonylamino)benzoyl]-4-(2-methoxyphenyl)-L-phenylalanine] | < 0.3 µM
CC(C)(C)NS(=O)(=O)c1ccccc1-c1ccc(C[C@H](NC(=O)c2c(Cl)cccc2Cl)C(=O)O)cc1 [Example 16, N-(2,6-Dichlorobenzoyl)-4-[2-[N-(tert-butyl)sulfamoyl]phenyl]-L-phenylalanine] | < 0.3 µM
C[S+]([O-])c1ccccc1-c1ccc(C[C@H](NC(=O)c2c(Cl)cccc2Cl)C(=O)O)cc1 (single isomer, unassigned) [Example 152C, N-(2,6-dichloro-benzoyl)-4-[2-(methylsulfinyl)phenyl]-L-phenylalanine] | 0.3 to 1 µM
O=C(N[C@@H](Cc1ccc(-c2cc3ccccc3o2)cc1)C(=O)O)c1c(Cl)cccc1Cl [Example 130] | > 5 µM
CCOc1cccc(OCC)c1-c1ccc(C[C@H](NC(=O)c2c(Cl)cccc2Cl)C(=O)O)cc1 [Example 13, N-(2,6-Dichlorobenzoyl)-4-(2,6-diethoxyphenyl)-L-phenylalanine] | < 0.3 µM

The remaining lines, values ahead:

IC50 | Structure (SMILES)
< 0.3 µM | COc1cc(OCCO)cc(OC)c1-c1ccc(C[C@H](NC(=O)c2c(Cl)cccc2Cl)C(=O)O)cc1 [Example 222, N-(2,6-Dichlorobenzoyl)-4-[2,6-dimethoxy-4-(2-hydroxyethoxy)phenyl]-L-phenylalanine]
< 0.3 µM | COc1ccccc1-c1ccc(C[C@H](NC(=O)c2ccc(NS(=O)(=O)c3ccc(C(F)(F)F)cc3)cc2Cl)C(=O)O)cc1 [Example 187, N-[2-Chloro-4-[[(4-trifluoromethylphenyl)sulfonyl]amino]benzoyl]-4-(2-methoxyphenyl)-L-phenylalanine]
< 0.3 µM | COc1cccc(OC)c1-c1ccc(C[C@H](NC(=O)c2ccc(NS(=O)(=O)C(F)(F)F)cc2Cl)C(=O)O)cc1 [Example 183, N-[2-Chloro-4-[(trifluoromethanesulfonyl)amino]-benzoyl]-4-(2,6-dimethoxyphenyl)-L-phenylalanine]
1 to 5 µM | CC(C)Oc1ccccc1-c1ccc(C[C@H](NC(=O)c2c(Cl)cccc2Cl)C(=O)O)cc1 [Example 225, N-(2,6-Dichlorobenzoyl)-4-(2-i-propoxyphenyl)-L-phenylalanine]
1 to 5 µM | CC(C)Oc1cccc(-c2ccc(C[C@H](NC(=O)c3c(Cl)cccc3Cl)C(=O)O)cc2)c1 [Example 224, N-(2,6-Dichlorobenzoyl)-4-(3-i-propoxyphenyl)-L-phenylalanine]
< 0.3 µM | COc1cccc(OC)c1-c1ccc(C[C@H](NC(=O)c2c(Cl)cc(-c3ccn[nH]3)cc2Cl)C(=O)O)cc1 [Example 304, N-[4-(5-Pyrazolyl)-2,6-dichlorobenzoyl)-4-(2,6-dimethoxyphenyl)-L-phenylalanine]
1 to 5 µM | COc1cccc(OC)c1-c1ccc(C[C@H](NC(=O)c2c(Cl)cccc2Cl)C(=O)NO)cc1 [Example 268, N-(2,6-dichlorobenzoyl)-4-(2,6-dimethoxyphenyl)-L-phenylalanine N-hydroxyamide]
< 0.3 µM | COc1cc(CN2CCCC2)cc(OC)c1-c1ccc(C[C@H](NC(=O)c2c(Cl)cccc2Cl)C(=O)O)cc1 [Example 243]
> 5 µM | COc1cccc(OC)c1-c1ccc(C[C@H](NC(=O)c2c(Cl)cccc2Cl)C(=O)OC(C)C)cc1 [Example 275, N-(2,6-Dichlorobenzoyl)-4-(2,6-dimethoxyphenyl)-L-phenylalanine i-propyl ester]
< 0.3 µM | COc1cc(CN2CCN(C(C)=O)CC2)cc(OC)c1-c1ccc(C[C@H](NC(=O)c2c(Cl)cccc2Cl)C(=O)O)cc1 [Example 251]
< 0.3 µM | COc1cccc(OC(C)C)c1-c1ccc(C[C@H](NC(=O)c2c(Cl)cccc2Cl)C(=O)O)cc1 [Example 226, N-(2,6-Dichlorobenzoyl)-4-(2-i-propyloxy-6-methoxyphenyl)-L-phenylalanine]
< 0.3 µM | COc1c(F)cc2c(c1-c1ccc(C[C@H](NC(=O)c3c(Cl)cccc3Cl)C(=O)O)cc1)OCO2 [Example 154, N-(2,6-Dichlorobenzoyl)-4-(2,3-methylenedioxy-5-fluoro-6-methoxyphenyl)-L-phenylalanine]
